Measurements: patent US7566787B2, “Small molecule cyclin D1 ablative agents” (The Ohio State University, priority 2004, dated 2009)
Read-outs that look alike come from different tables or passages of the source.

Key:
MCF-7 cells = test: MTT cell viability assay; assay type: cell-based; conditions: Homo sapiens
Protocol: Cell viability analysis. The effect of individual test agents on cell viability was assessed by using the MTT [3-(4,5-dimethylthiazol-2-yl)-2,5-diphenyl-2H-tetrazolium bromide] assay in six replicates. Cells were seeded and incubated in 96-well, flat-bottomed plates in DMEM-F12 media with 10% FBS for 24 h, and were exposed to various concentrations of test agents dissolved in DMSO (final DMSO concentration, 0.1%) in 5% FBS-supplemented DMEM-F12 medium. Controls received DMSO vehicle at a concentration equal to that of drug-treated cells. The medium was removed, replaced by 200 μl of 0.5 mg/ml of MTT in 10% FBS-containing RPMI-1640 medium, and cells were incubated in the CO2 incubator at 37° C. for 2 h. Supernatants were removed from the wells, and the reduced MTT dye was solubilized in 200 μl/well DMSO. Absorbance at 570 nm was determined on a plate reader.

cyclin D1 = test: Western blot analysis of cyclin D1 expression in MCF-7 cells; assay type: cell-based, human; conditions: for minimum concentration required for the complete ablation of cyclin D1: 24 h, 5% FBS; for concentration at which cyclin D1 levels are reduced: FIG. 8B
Protocol: (§1) Western Blot Analysis. MCF-7 or MDA-MB-231 cells were seeded in 10% FBS-containing DMEM-F-12 for 24 h and treated with various agents as indicated. After individual treatments for 24 h, both the incubation medium and adherent cells in T-25 or T-75 flasks were scraped and collected by centrifugation at 2,000×g for 10 min. The pellets were recovered, placed on ice, and triturated with 20 to 50 μl of a chilled lysis buffer (M-PER® Mammalian Protein Extraction Reagent, Pierce, Rockford, Ill.) to which was added 1% protease inhibitor cocktail (set III, EMD Biosciences, Inc. San Diego, Calif.). After a 30 min-incubation on ice, the mixture was centrifuge at 16,100×g for 3 min. Two μl of the suspension was taken for protein analysis using the Bradford assay kit (Bio-Rad, Hercules, Calif.). To the remaining solution was added the same volume of 2× SDS-PAGE sample loading buffer (100 mM Tris-HCl, pH 6.8, 4% SDS, 5% β-mercaptoethanol 20% glycerol, and 0.1% bromophenol blue). The mixture was boiled for 10 min. Equal amounts of proteins were loaded onto 10% SDS-PAGE gels. After electrophoresis, protein bands were transferred to nitrocellulose membranes in a semi-dry transfer cell. The transblotted membrane was blocking with TBST [Tris-buffered saline (TBS) containing 0.1% Tween 20] containing 5% nonfat milk for 90 min, and the membrane was incubated with the appropriate primary antibody in TBST-5% nonfat milk at 4° C. overnight. After washing three times with TBST for a total of 45 min, the transblotted membrane was incubated with goat anti-rabbit or anti-mouse IgG-horseradish peroxidase conjugates (diluted 1:1000) for 1 h at room temperature and washed four times with TBST for a total of 1 h. The immunoblots were visualized by enhanced chemiluminescence.

PPARγ = target: T1, PPARγ (Homo sapiens, UniProt P37231); test: Analysis of PPARγ activation (PPARγ transcription factor ELISA, MCF-7 nuclear extracts); assay type: cell-based; conditions: 10 μM, 48 h, MCF-7 cells
T1 construct: endogenous in cells; host or cells: MCF-7 (nuclear extracts)
T1 sequence (P37231 1-505): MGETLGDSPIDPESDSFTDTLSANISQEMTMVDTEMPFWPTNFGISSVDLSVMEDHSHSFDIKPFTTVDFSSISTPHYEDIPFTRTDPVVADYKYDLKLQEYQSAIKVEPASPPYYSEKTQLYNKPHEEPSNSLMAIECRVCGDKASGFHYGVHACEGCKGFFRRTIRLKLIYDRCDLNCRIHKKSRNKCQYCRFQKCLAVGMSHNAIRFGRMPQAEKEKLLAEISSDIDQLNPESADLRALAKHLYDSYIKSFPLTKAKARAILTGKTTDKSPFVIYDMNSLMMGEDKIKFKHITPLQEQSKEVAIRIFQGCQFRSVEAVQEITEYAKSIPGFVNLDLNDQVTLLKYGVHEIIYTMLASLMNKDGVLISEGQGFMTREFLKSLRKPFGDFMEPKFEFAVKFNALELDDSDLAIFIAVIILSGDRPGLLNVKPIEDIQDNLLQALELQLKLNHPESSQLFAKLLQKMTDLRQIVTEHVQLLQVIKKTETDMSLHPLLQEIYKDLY
Protocol: Analysis of PPARγ activation. The analysis was carried out by using a PPARγ transcription factor ELISA kit (Active Motif, Carlsbad, Calif.), in which an oligonucleotide containing the peroxisome proliferator response element (PPRE) was immobilized onto a 96-well plate. PPARs contained in nuclear extracts bind specifically to this oligonucleotide and are detected through an antibody directed against PPARγ. In brief, MCF-7 cells were cultured in RPMI 1640 medium supplemented with 10% FBS, and treated with DMSO vehicle or individual test agents, 10 μM each, for 48 h. Cells were collected, and nuclear extracts were prepared with a Nuclear Extract kit (Active Motif, Carlsbad, Calif.). Nuclear extracts of the same protein concentration from individual treatments were subject to the PPARγ transcription factor ELISA according to the manufacturer's instruction.

ERα = test: Western blot analysis of ERα expression in MCF-7 cells; assay type: cell-based, human; conditions: 24 h
Protocol: as §1, with “The transblotted membrane was blocking with TBST [Tris-buffered saline (TBS) containing 0.1% Tween 20] containing 5% nonfat milk for 90 min, and the membrane was incubated with the appropriate primary antibody in TBST-5% nonfat milk at 4° C. overnight. After washing three times with TBST for a total of 45 min, the transblotted membrane was incubated with goat anti-rabbit or anti-mouse IgG-horseradish peroxidase conjugates (diluted 1:1000) for 1 h at room temperature and washed four times with TBST for a total of 1 h. The immunoblots were visualized by enhanced chemiluminescence.” left out

cyclin D1 gene mRNA = test: RT-PCR analysis of mRNA transcripts of cyclin D1 gene in MCF-7 cells; assay type: cell-based, human; conditions: 24 h exposure, 40 μM TG, 30 μM Δ2-TG
Protocol: Reverse transcriptase (RT-) PCR analysis of mRNA transcripts of cyclin D1 gene. MCF7 cells were subject to total RNA isolation by using RNeasy mini kit (Qiagen, Valencia, Calif.). RNA concentrations and quality were assessed spectrophotometrically by measuring absorption at 260 nm. Aliquots of 20 μg of total RNA from each sample was reverse transcribed to cDNA using Omniscript RT Kit (Qiagen) according to manufacturer's instructions. The primers used were as follows: cyclin D1, forward, 5′-[…]-3′, reverse, 5′-[…]-3′; β-actin, forward, 5′-[…]-3′, reverse, 5′-[…]-3′. The reaction conditions were as follows: for cyclin D1 (a) initial denaturation at 95° C. for 5 min; (b) 34 cycles of amplification (95° C. for 1 min, 65° C. for 1 min 45 s, and 72° C. for 1 min); and (c) a final extension step of 10 min at 72° C.; for β-actin (a) initial denaturation at 95° C. for 3 min; (b) 40 cycles of amplification (95° C. for 30 s, 58° C. for 20 s, and 72° C. for 45 s); and (c) a final extension step of 10 min at 72° C.

[1] = test system: cyclins D2, D3, A, B, and E, and cyclin-dependent kinases (CDKs) 2 and 4; test: Western blot of other cyclins and CDKs in MCF-7 cells; assay type: cell-based, human; conditions: different doses, 24 h
Protocol: as §1, with “The transblotted membrane was blocking with TBST [Tris-buffered saline (TBS) containing 0.1% Tween 20] containing 5% nonfat milk for 90 min, and the membrane was incubated with the appropriate primary antibody in TBST-5% nonfat milk at 4° C. overnight. After washing three times with TBST for a total of 45 min, the transblotted membrane was incubated with goat anti-rabbit or anti-mouse IgG-horseradish peroxidase conjugates (diluted 1:1000) for 1 h at room temperature and washed four times with TBST for a total of 1 h. The immunoblots were visualized by enhanced chemiluminescence.” left out

ubiquitinated cyclin D1 = test: Coimmunoprecipitation/Western blot of cyclin D1 ubiquitination in MCF-7 cells; assay type: cell-based, human; conditions: 30 μM TG or 20 μM Δ2-TG, 20 h
Protocol: Coimmunoprecipitation/Western Blot. MCF-7 cells were cultured in 10% FBS-containing DMEM-F-12 in 75-mm plates for 24 h. Cell were treated with DMSO vehicle, 30 μM TG, or 20 μM Δ2-TG in 5% FBS-containing DMEM-F12 medium for another 20 hours. Cells were rinsed with PBS at room temperature, scraped off the flask, transferred into centrifuge tubes, and centrifuged at 2,000×g for 10 min to pellet the cells. […] These cell lysates were treated with 100 μl of protein A-agarose bead slurry, followed by brief centrifugation, to remove nonspecific binding proteins. Equal amounts of proteins from these lysates, as determined by the Bradford assay, were mixed with anti-cyclin D1 in an orbital shaker at 23° C. for 2 h, followed by 100 μl of protein A-agarose bead slurry at 4° C. for 12 h. The immunocomplex was collected by brief centrifugation, washed 4 times with 800 μl of ice-cold RIPA buffer, and suspended in 50 μl of the aforementioned 2× SDS sample loading buffer. The suspension was boiled for 10 min, cooled, and briefly centrifuged to remove the beads. Western blot analysis was performed with anti-cyclin D1 or anti-ubiquitin as described above.

GSK-3β = test: Western blot of GSK-3β phosphorylation in MCF-7 cells; assay type: cell-based, human; conditions: different doses
Protocol: as §1, with “The transblotted membrane was blocking with TBST [Tris-buffered saline (TBS) containing 0.1% Tween 20] containing 5% nonfat milk for 90 min, and the membrane was incubated with the appropriate primary antibody in TBST-5% nonfat milk at 4° C. overnight. After washing three times with TBST for a total of 45 min, the transblotted membrane was incubated with goat anti-rabbit or anti-mouse IgG-horseradish peroxidase conjugates (diluted 1:1000) for 1 h at room temperature and washed four times with TBST for a total of 1 h. The immunoblots were visualized by enhanced chemiluminescence.” left out

[2] = MCF7, cell viability data, read-out: IC50 for MTT
[3] = MCF7, 24 h, 5% FBS, MTT, FIG. 8D, read-out: IC50 in inhibiting MCF-7 cell proliferation

Row | IC50 (MCF-7 cells; [2]) | PPARγ activation (PPARγ) | IC50 (MCF-7 cells; [3]) | IC50 (cyclin D1; western blot data, read-out: IC50 for WB) | Compound | minimum concentration required for the complete ablation of cyclin D1 (cyclin D1) | effect on ERα expression (ERα) | potency in ablating cyclin D1 relative to Δ2-TG (cyclin D1) | concentration at which cyclin D1 levels are reduced (cyclin D1) | time of complete ablation of cyclin D1 (cyclin D1; 40 μM TG, 30 μM Δ2-TG) | mRNA level of cyclin D1 (cyclin D1 gene mRNA) | expression level of cyclin D2 and CDK4 [1] | expression level of the other cyclins and CDKs (D3, A, B, E, CDK2) [1] | extent of ubiquitination of cyclin D1 (ubiquitinated cyclin D1) | GSK-3β phosphorylation level (GSK-3β)
1 | 70 µM | inactive | – | – | CC1(COc2ccc(/C=C3\SC(=O)NC3=O)cc2)CCCCC1 [Δ2-CG, 5-[4-(1-methyl-cyclohexylmethoxy)-benzylidene]-thiazolidine-2,4-dione] | 30 µM | able to reduce | – | – | – | – | – | – | – | –
2 | 9 µM | devoid of activity | 8 µM | 3 µM | C=CCOc1c(C)c(C)c2c(c1C)CCC(C)(COc1ccc(/C=C3\SC(=O)NC3=O)cc1)O2 (stereo not shown) [TG-6, 5-[4-(6-allyoxy-2,5,7,8-tetramethyl-chroman-2-yl-methoxy)-benzylidene]-2,4-thiazolidinedione] | – | – | an-order-of-magnitude higher | ≥ 2.5 µM | – | – | – | – | – | –
3 | 57 µM | inactive | 55 µM | – | Cc1c(C)c2c(c(C)c1O)CCC(C)(COc1ccc(/C=C3\SC(=O)NC3=O)cc1)O2 (stereo not shown) [Δ2-TG, 5-[4-(6-hydroxy-2,5,7,8-tetramethyl-chroman-2-yl-methoxy)-benzylidene]-2,4-thiazolidinedione] | 30 µM | able to reduce | – | ≥ 20 µM | 24 h | remained unaltered | slight decrease | no appreciable effect | increased | remained unaltered
